The values below are quoted from earlier work in patent US6955812B2, “Health food and preparation having an anti-obesity effect” (Mitsubishi Heavy Industries, Ltd., priority 2001, dated 2005).

This data set deals with HepG2 cells. To be noted: cultured HepG2 cells of a human liver model; from Japanese patent application No. 2000-202404.

In the case of `NC(CO)CS(=O)(=O)O` [D-cysteinolic acid], the “effect on neutral fat (triglyceride)” value is “greatly suppressing”.
